Results on 17 compounds are retold here after ChEMBL document CHEMBL1145186, “Extravascular transport of drugs in tumor tissue: effect of lipophilicity on diffusion of tirapazamine analogues in multicellular layer cultures” (J Med Chem, 2005).

This series in a line: Partition coefficient (logP) of the compound. The series is classed as physicochemical.
The compound `COCCc1cccc(Nc2n[n+]([O-])c3ccccc3[n+]2[O-])c1` registered a logP of 1.51. Compound `[O-][n+]1nc(Nc2ccccc2)[n+]([O-])c2ccccc21` displayed a logP of 1.43. In the case of `Nc1n[n+]([O-])c2cc(Cl)ccc2[n+]1[O-]` it was 0.441; in that of `Cc1cccc2c1[n+]([O-])nc(N)[n+]2[O-]`, 0.24. Consider `CCN(CC)c1cccc2c1[n+]([O-])nc(N)[n+]2[O-]`, for which the logP was determined as 0.83. `Cc1ccc2c(c1)[n+]([O-])nc(N)[n+]2[O-]` registered a logP of 0.127. `CS(=O)(=O)c1cccc2c1[n+]([O-])nc(N)[n+]2[O-]`: the log partition coefficient (logP) is -1.38. On to `Nc1n[n+]([O-])c2cccc(Cl)c2[n+]1[O-]`, for which the logP was -0.102. The compound `Nc1n[n+]([O-])c2c(C(F)(F)F)cccc2[n+]1[O-]` displayed a logP of 0.48. Compound `Nc1n[n+]([O-])c2cc(C(F)(F)F)ccc2[n+]1[O-]` gave a lipophilicity (logP) of 0.82. In turn, `Cc1ccc2c(c1)[n+]([O-])c(N)n[n+]2[O-]` gave a logP of 0.068. Compound `CS(=O)(=O)c1ccc2c(c1)[n+]([O-])nc(N)[n+]2[O-]` yielded a log partition coefficient (logP) of -1.15. Compound `Nc1n[n+]([O-])c2c(Cl)cccc2[n+]1[O-]` registered a logP of 0.166. In turn, `O=c1c2ccccc2[nH]c2ccccc12` [ACRIDONE] gave a logP of 2.98. In the case of `OC[C@@H](O)[C@@H](O)[C@H](O)[C@H](O)CO` [MANNITOL] it was -2.62; in that of `Nc1n[n+]([O-])c2ccccc2[n+]1[O-]` [TIRAPAZAMINE], -0.342; in that of `NC(N)=O` [UREA], -2.01.

The logP is a log measure of how a compound divides between an organic and an aqueous phase. High values mean a more lipophilic compound, low ones a more hydrophilic compound.
